From the NIST ThermoML archive (doi:10.1016/j.tca.2016.07.008) come the findings set out here.

For data set [1] the following is noted: Crystal; DTA.
Data set [2] is described as follows: Molar enthalpy of transition or fusion. The settings on record: Crystal; DSC.

Molecules are shown by their SMILES. ± gives the expanded uncertainty stated by the source.

Take `COc1cccc(/C=N/NC(=O)c2ccncc2)c1O` [N'-(2-hydroxy-3-methoxybenzylidene)isonicotinohydrazide]: in data set [1], the Normal melting temperature amounted to 236.70 ± 2 °C. The “Molar enthalpy of transition or fusion” value in data set [2] is 49.7 ± 1.1 kJ/mol.

In the case of `O=C(N/N=C/c1ccccc1O)c1ccncc1` [N'-(2-hydroxybenzylidene)isonicotinohydrazide], in data set [1], the Normal melting temperature worked out at 248.20 ± 2 °C. Moreover, the “Molar enthalpy of transition or fusion” value in data set [2] is 45.4 ± 1 kJ/mol.
